In patent publication US20200289456A1, “METHODS FOR INHIBITING TUMORS AND DRUG RESISTANCE” (SEQUOIA PHARMACEUTICALS, INC., priority 2015, published 2020):

System: tumors expressing high levels of CYP3A4
Assay: Combination of Docataxel and an ICI in patients (21 day treatment cycle)
Type: in vivo
Description: The compound of formula IA (150 mg po qd) is administered to patients for the first 3 days of a 21 day treatment cycle. Escalating doses of Docataxel are administered IV beginning on day 4. Docataxel is dose-escalated at 15, 25, 40, and 50 mg/m^2, where the standard dose is 75 mg/m^2.

SMILES: CCCCCCN(CCCN(CC(C)C)S(=O)(=O)c1ccc2occc2c1)C(=O)OC(C)(C)C [IA]
- cancer cell kill in tumors expressing high levels of CYP3A4 (IA 150 mg po qd days 1-3, Docataxel IV from day 4): improves cancer cell kill
- toxicity of Docataxel (IA 150 mg po qd days 1-3, lower dose of docataxel and lower Cmax while maintaining AUC): diminishes toxicity
- variability in AUC and drug response of Docataxel (IA 150 mg po qd days 1-3 of 21 day cycle, Docataxel IV from day 4, 15-50 mg/m^2): decreases variability in AUC and drug response
